Experimental data reported in patent publication US4788214A, “3,4-dihydro-2H-1-benzopyran derivatives” (Hoffman-La Roche Inc., priority 1986, dated 1988).

Columns and labels:
[1] = test system: leukotriene E4 bronchoconstriction; assay: Guinea Pig Bronchoconstriction, In Vivo (Aerosol), leukotriene E4 challenge; set-up: species or system guinea pig (Hartley strain); conditions: five minute exposure, drug concentration of aerosol solution (w/v), leukotriene E4 i.v.
Procedure: (b) Guinea Pig Bronchoconstriction, In Vivo (Aerosol):
Male guinea pigs (Hartley strain) weighing 300 to 500 g are anesthetized with urethane (2 g/kg) intraperitoneally and a polyethylene cannula is inserted into the jugular vein for drug administration. Tracheal pressure is recorded from a cannula inserted in the trachea and connected to a Statham pressure transducer. After surgical preparation of the animals, a period of time is allowed for pulmonary functions to stabilize. The test compound is administered according to the following protocol. Propanolol (0.1 mg/kg) is administered intravenously while the animals breathed spontaneously. Five minutes thereater, the animals are exposed for a five minute period to a 1% (w/v) aerosol solution of test compound (adjusted to an alkaline pH where necessary for drug solubilization) or to distilled water of thhe appropriate pH (for control purposes). A Monaghan (Model 750) ultrasonic nebulizer is used to administer all test compounds by inhalation. The nebulizer ultrasonic frequency is adjusted to produce particles in the 1-8μ diameter range (average 3μ). Aqueous solutions are prepared freshly and introduced into the chamber of the nebulizer. The output of the nebulizer is made available to the animal by directing a bias flow of aerosol through a Y tube connected to the trachel cannula. At the end of the exposure period, the animals are paralyzed with succinylcholine (1.2 mg/kg, i.v.) and mechanically respirated (Harvard rodent respirator) at 40 breaths/minute and 2.5 cc tidal volume. Animals are then challenged with a maximum constrictory dose of leukotriene E4 delivered intravenously 30 seconds after administration of the succinylcholine.
The change (cm H2 O) between pre and peak ventilatory pressure readings averaged for three control animals and five drug treated animals. The percent inhibition is calculated from the following formula: [formula] When various drug concentrations are tested, the percent inhibition at each concentration is plotted as log concentration (abscissa) versus percent inhibition (ordinate) and the IC50 is determined from linear regression analysis.

[2] = test system: SRS-A-induced constriction of the guinea pig ileum; assay: Guinea Pig Ileum, In Vitro (SRS-A antagonism); format: cell-based; conditions: Cavia porcellus; SRS-A-induced constriction, 37° C., SRS-A at its EC50; read-out: In vitro Guinea Pig ileum IC50
Procedure: (a) Guinea Pig Ileum, In Vitro:
The guinea pig ileum bioassay system has been described by Orange Austen, Adv. Immunol. […] A 1.5 cm segment is removed from animals weighing 300-400 g and suspended in an organ bath containing 10 ml of Tyrodes solution with 10^-6 M atropine sulfate and 10^-6 M pyrilamine maleate. […] The SRS-A utilized in this screen is obtained by challenging chopped lung fragments from actively sensitized guinea pigs with egg albumin, in vitro. A dose-response curve to SRS-A challenge is established for the ileum. […] The drug concentration which inhibits, by 50%, the SRS-A-induced constriction of the guinea pig ileum is determined.

[3] = test system: leukotriene D4 induced bronchoconstriction; assay: Oral Testing of Leukotriene Antagonists, leukotriene D4 challenge; format: in vivo, guinea pig (Hartley strain); conditions: Cavia porcellus, 2 h, p.o., two hours prior to challenge
Procedure: (c) Oral Testing of Leukotriene Antagonists
Male guinea pigs (Hartley strain, Charles River) weighing 400 to 600 g were anesthetized with urethane (2 g/kg) intraperitoneally and a polyethylene cannula was inserted into the jugular vein for intravenous drug administration. Tracheal pressure (cm water) was recorded from a Statham pressure transducer. After surgical preparation of the animals, a period of time was allowed for spontaneous breathing to stabilize. […] Two minutes later, spontaneous breathing was arrested with succinylcholine chloride (1.2 mg/kg, i.v.) and the animals ventilated with a Harvard (Model #680) small animal respirator set at 40 breaths per minute and 4.0 cc stroke volume. The animals were challenged with a maximum constrictory dose of either leukotriene C4 or leukotriene D4 or leukotriene E4 (25 μg/kg, i.v.) at 5 minutes. Control vehicle or test drug (adjusted to an alkaline pH where necessary for drug solubilization) was administered (10 mg/kg, p.o.) two hours prior to challenge with leukotriene. In order to determine the ID50 for a test drug, the dose is varied from 10 mg/kg, p.o. to 100, 50, 30, 20, 5, 3 and 1 mg/kg, p.o.
In order to determine oral duration of action, the time between exposure to test drug and challenge with leukotriene is varied.

| Structure (SMILES) | Guinea Pig Bronchoconstriction In vivo aerosol - IC50 [1] [%] | IC50 [2] [nM] | inhibition at 10 mg/kg [3] [%] |
| --- | --- | --- | --- |
| CCCc1c(OCCCCCOc2cc3c(cc2C(C)=O)CCC(C(=O)O)O3)ccc(C(C)=O)c1O (racemic) [racemic-6-acetyl-7-[5-(4-acetyl-3-hydroxy-2-propylphenoxy)pentyloxy]-3,4-dihydro-2H-1-benzopyran-2-carboxylic acid] | 0.052 | 60 | – |
| CCCc1c(OCCCCCOc2cc3c(cc2C(C)=O)CCC(CCCCC(=O)O)O3)ccc(C(C)=O)c1O (racemic) [racemic-6-acetyl-7-[5-(4-acetyl-3-hydroxy-2-propylphenoxy)pentyloxy]-3,4-dihydro-2H-1-benzopyran-2-pentanoic acid] | – | – | 46 ± 14 |
| CCCc1c(OCCCOc2ccc3c(c2)OC(C)(CCC(=O)O)CC3)ccc(C(C)=O)c1O (racemic) [racemic-7-[3-(4-acetyl-3-hydroxy-2-propylphenoxy)propoxy]-3,4-dihydro-2-methyl-2H-1-benzopyran-2-propanoic acid] | > 1.0 | 100 | – |
| CCCc1c(OCCCOc2ccc3c(c2)OC(CC(=O)O)CC3)ccc(C(C)=O)c1O (racemic) [racemic-7-[3-(4-acetyl-3-hydroxy-2-propylphenoxy)propoxy]-3,4-dihydro-2H-1-benzopyran-2-acetic acid] | 0.67 | 100 | – |
| CCCc1c(OCCCOc2ccc3c(c2)OC(C(=O)O)CC3)ccc(C(C)=O)c1O (racemic) [racemic-7-[3-(4-acetyl-3-hydroxy-2-propylphenoxy)propoxy]-3,4-dihydro-2H-1-benzopyran-2-carboxylic acid] | 0.14 | 60 | – |
| CCCc1c(OCCCOc2cc3c(cc2C(C)=O)OC(C(=O)O)CC3)ccc(C(C)=O)c1O (racemic) [racemic-7-acetyl-6-[3-(4-acetyl-3-hydroxy-2-propylphenoxy)propoxy]-3,4-dihydro-2H-1-benzopyran-2-carboxylic acid] | 0.34 | 200 | – |

Continued, in another order:

| Guinea Pig Bronchoconstriction In vivo aerosol - IC50 [1] [%] | IC50 [2] [nM] | Structure (SMILES) | inhibition at 10 mg/kg [3] [%] |
| --- | --- | --- | --- |
| 1.0 | 1000 | CCCc1c(OCCCCCCCOc2cc3c(cc2C(C)=O)CCC(C(=O)O)O3)ccc(C(C)=O)c1O (racemic) [racemic-6-acetyl-7-[7-(4-acetyl-3-hydroxy-2-propylphenoxy)heptyloxy]-3,4-dihydro-2H-1-benzopyran2-carboxylic acid] | – |
| 0.71 | 500 | CCCc1c(OCCCOc2ccc3c(c2CCC)OC(C)(CCC(=O)O)CC3)ccc(C(C)=O)c1O (racemic) [racemic-7-[3-(4-acetyl-3-hydroxy-2-n-propylphenoxy)propoxy]-3,4-dihydro-2-methyl-8-n-propyl-2H-1-benzopyran-2-propanoic acid] | – |
| 0.20 | 100 | CCCc1c(OCCCOc2ccc3c(c2CCC)OC(C(=O)O)CC3)ccc(C(C)=O)c1O (racemic) [racemic-7-[3-(4-acetyl-3-hydroxy-2-propyl)phenoxy)propoxy]-3,4-dihydro-8-propyl-2H-1-benzopyran-2-carboxylic acid] | – |
| 1.0 | 500 | CCCc1c(OCCCOc2cc3c(cc2C(C)=O)OC(C)(C(=O)O)CC3)ccc(C(C)=O)c1O (racemic) [racemic-7-acetyl-6-[3-(4-acetyl-3-hydroxy-2-propylphenoxy)propoxy]-3,4-dihydro-2-methyl-2H-1-benzopyran-2-carboxylic acid] | – |
| 0.59 | 300 | CCCc1c(OCCCOc2ccc3c(c2C(C)=O)OC(C(=O)O)CC3)ccc(C(C)=O)c1O (racemic) [racemic-8-acetyl-7-[3-(4-acetyl-3-hydroxy-2-propylphenoxy)propoxy]-3,4-dihydro-2H-1-benzopyran-2-carboxylic acid] | – |
